Literature values in patent publication US10154980B2, “Anti-inflammatory omega-3 synergistic combinations” (LYCORED LTD., priority 2013, dated 2018).

Tested on: NO production
Details: background, literature references

| Structure (SMILES) | inhibit NO production |
| --- | --- |
| CC1=C[C@H](O)CC(C)(C)[C@H]1/C=C/C(C)=C/C=C/C(C)=C/C=C/C=C(C)/C=C/C=C(C)/C=C/C1=C(C)C[C@@H](O)CC1(C)C [lutein, (3R,3′R, 6′R)-beta,epsilon-carotene-3,3′-diol] | shown to inhibit NO production |
| CC(C)=CCC/C(C)=C/C=C/C(C)=C/C=C/C(C)=C/C=C/C=C(C)/C=C/C=C(C)/C=C/C=C(\C)CCC=C(C)C [lycopene] | shown to inhibit NO production |
